Source: US20250027050A1, “LONG-TERM CULTURE OF COLORECTAL EPITHELIAL CELLS” (ISM CO., LTD., priority 2021, published 2025)
Entries after “also recorded” stand apart in the source; their conditions may differ.

What was measured:
Format in all cases: cell-based
[1] = tested on: Primary human colonic epithelial cells (HCoEpiC); assay: Long-term culture of primary human colonic epithelial cells in the presence of low molecular weight compounds (cell number, morphology); conditions: for cell morphology during long-term culture: 10 μM Y-27632 solely added, after 72 days of culture; for continued growth / long-term culture of colorectal epithelial cells (number of cells): complete medium with 10 μM Y-27632 solely added, culture continued for 72 days, compared with A, C, YA, YC groups
Protocol: Regarding Primary human colonic epithelial cells (HCoEpiC), Lot No. 17030 was purchased from ScienCell Research Laboratories, Inc. (SCR, Carlsbad, CA, United States) and used. A complete medium containing 5 mL of a colonic epithelial cell growth supplement (CoEpiCGS, SCR) and 5 mL of penicillin/streptomycin (P/S, SCR) added to 500 mL of a colonic epithelial cell medium (CoEpiCM, SCR) as a basal medium was used as a medium. To investigate the effect on release of exosomes, 10 μM Y-27632 (ROCK inhibitor) (Wako), 0.5 μM A-83-01 (ALK5/7/4 selective inhibitor) (Wako), and 3 μM CHIR99021 (GSK-3 inhibitor) (Axon Medchem, Reston, VA) were used. Cells were completely dissolved in a water bath at 37° C. and seeded on 10 mL of the complete medium in a 10-cm dish coated with poly-L-lysine (poly-[…] 2 μg/cm^2, SCR) at 2.5×10^5 cells/dish. On the following day, the medium was replaced with a fresh complete medium. The medium was replaced with a complete medium every 3 or 4 days until 70% confluency was reached and then every other day while 70% to 90% confluency was reached. Cells reaching 90% confluency were removed using a 0.05% trypsin/EDTA solution (T/E, SCR) and seeded onto a 12-well plate (Fisher-brand 12-well tissue culture plate with a flat bottom) at 2×10^4 cells/well. Twenty four hours later, the medium was replaced with a complete medium containing or not containing Y-27632 (10 μM), and thereafter the medium was replaced every other day until 90% confluency was reached. When 90% confluency was reached, the cells were subcultured again, and the above-described procedures were continued for 72 days.

[2] = tested on: Primary human colonic epithelial cells (HCoEpiC); assay: Particle diameter and particle number in culture supernatant by NanoSight
Protocol: (§1) Cells were completely dissolved in a water bath at 37° C. and seeded on 10 mL of the complete medium in a 10-cm dish coated with poly-L-lysine (poly-[…] 2 μg/cm^2, SCR) at 2.5×10^5 cells/dish. On the following day, the medium was replaced with a fresh complete medium. The medium was replaced with a complete medium every 3 or 4 days until 70% confluency was reached and then every other day while 70% to 90% confluency was reached. Cells reaching 90% confluency were removed using a 0.05% trypsin/EDTA solution (T/E, SCR) and seeded onto a 12-well plate (Fisher-brand 12-well tissue culture plate with a flat bottom) at 2×10^4 cells/well. Twenty four hours later, the medium was replaced with a complete medium containing or not containing Y-27632 (10 μM), and thereafter the medium was replaced every other day until 90% confluency was reached. When 90% confluency was reached, the cells were subcultured again, and the above-described procedures were continued for 72 days. The culture supernatant in the culture was recovered, and the particle diameter and the particle number were measured using a nanoparticle analysis system NanoSight (NS300, Malvern Panalytical Ltd.). Then, the signal intensities of exosome markers, CD9 and CD63, in the recovered culture supernatant were measured by an ExoScreen assay.

[3] = tested on: Primary human colonic epithelial cells (HCoEpiC); assay: ExoScreen assay of exosome markers CD9 and CD63 in culture supernatant
Protocol: as §1

C[C@@H](N)[C@H]1CC[C@H](C(=O)Nc2ccncc2)CC1 [Y-27632, (1R,4r)-4-((R)-1-aminoethyl)-N-(pyridin-4-yl)cyclohexanecarboxamide]
cell morphology during long-term culture [1]: the morphology was unchanged | cell morphology during long-term culture ([1]; listed as Y): no morphological change was observed | continued growth / long-term culture of colorectal epithelial cells (number of cells) [1]: continued growth over the longest period; also recorded: allowed long-term culture of colorectal epithelial cells | continued growth / long-term culture of colorectal epithelial cells (number of cells) ([1]; listed as Y): Long-term culture was enabled | particle number concentration in the medium ([2]; Day 72 of culture, presence vs absence of Y-27632): higher in the absence of Y-27632 | particle diameter of released vesicles ([2]; culture supernatants at Day 28, Day 35, Day 72, Y(+) vs Y(−)): unchanged | exosomes detected using CD9 and CD63 markers (signal intensity) ([3]; culture supernatant of HCoEpiC cultured in the presence vs absence of Y-27632): more exosomes were detected | decrease of CD9(+) exosomes after repeated passages ([3]; in the presence of Y-27632, fraction decreased): about ⅓
